Reference: patent publication US20090143388A1, “TREATMENT OF BRAIN DISORDERS” (priority 2007, published 2009)
“Also recorded” adds a separate entry of the source.

Key:
Balb/c mice [1] = assay: MPTP-induced akinesia; format: in vivo
Experimental: (§1) FIG. 3. Effect of irsogladine on MPTP-induced akinesia (A) and catalepsy (B). Assessment of catalepsy was undertaken 2 h after the treatment of MPTP in Balb/c mice. […] Results given are mean±S.E.M., n=6-8 for control group and 10-12 for MPTP-treated groups (*p<0.01 vs. control; Mann-Whitney Rank Sum test).
(§2) Experimental design. The animals were divided into eight groups. The first four groups of animals received either vehicle (0.5% CMC) or different doses of irsogladine (25, 50, and 100 mg/kg). The fifth group of animals was administered with MPTP. The remaining three groups received the two doses of MPTP, and different doses of irsogladine (25, 50, and 100 mg/kg). Each of the control groups consisted of 6-8 animals; while MPTP treated groups consisted of 10-12 animals. The total period of study was 5 days. Each experiment was repeated at least twice on separate days.
(§3) MPTP was dissolved in normal saline and administered intraperitonially (i.p.), twice, 16 h apart, at the dose of 30 mg/kg to mice. The animals received the first injections at 1700 h and the second at 0900 h the next day. Different doses of irsogladine (25, 50, and 100 mg/kg) were suspended in 0.5% sodium CMC and administered to control and MPTP-treated mice. Irsogladine administration started 30 min after the second MPTP injection and continued at an interval of 12 h for the next two days. The volume of injection was 10 μl/g body weight.
Akinesia. Akinesia was measured by noting the latency in seconds (s) of the animals to move all four limbs and the test was terminated if the latency exceeded 180 s. Each animal was initially acclimatized for 5 min on a wooden elevated platform (40 cm×40 cm×30 cm) used for measuring akinesia in mice. Using a stopwatch, the time taken (s) by the animal to move all the four limbs was recorded. This exercise was repeated five times for each animal.

Balb/c mice [2] = assay: MPTP-induced catalepsy; format: in vivo; conditions: for catalepsy (rigidity), drug alone: irsogladine alone, no MPTP
Experimental: as §1, §2, §3
Catalepsy. The term implies the inability of an animal to correct an externally imposed posture. Catalepsy was measured by placing the animals on a flat horizontal surface with both the hind limbs on a square wooden block (3 cm high) and the latency in seconds was measured to move the hind limbs from the block to the ground. The animals were initially acclimatized on the wooden platform.

Balb/c mice [3] = assay: Striatal 5-HT and 5-HIAA levels by HPLC-electrochemistry; format: in vivo; conditions: for level of 5-HIAA, in words / level of serotonin (5-HT), in words: animals treated with MPTP and/or irsogladine; for 5-HIAA (pmol/mg tissue; Mean ± SEM) / 5-HT (pmol/mg tissue; Mean ± SEM): striatum, 5th day
Experimental: Serotonin (5-HT) and its metabolite were assayed employing a sensitive HPLC-electrochemical procedure in the striata of Balb/c mice on 5th day following MPTP treatment (30 mg/kg; administered twice, 16 h apart, i.p.). Irsogladine (25, 50 and 100 mg/kg, p.o.) was administered for two days at 12 h intervals following second MPTP injection. Results given are mean±S.E.M., n=6-8 for control groups and 10-12 for MPTP-treated groups
(§4) Animals. Adult male Balb/c mice, weighing 20-25 g were used in the present study. They were housed under standard conditions of temperature (22±1° C.), humidity (60±5%) and illumination (12-h light/dark cycle). The experimental protocol met the National Guidelines on the ‘Proper Care and Use of Animals in Laboratory Research’ (Indian National Science Academy, New Delhi, 2000) and was approved by the Animal Ethics Committee of the Institute. The procedures adhered to the NIH Guidelines for the Care and Use of Laboratory Animals.
as §2, §3
(§5) Analysis of biogenic amines by HPLC-electrochemistry. DA, DOPAC, HVA, 5-HT, and 5-HIAA were assayed employing HPLC equipped with an electrochemical detector. Animals were sacrificed on the 5th day by cervical dislocation. Striata were quickly dissected out from the left and right hemispheres of the brain, weighed, sonicated in chilled HClO4 (0.1 M) containing 0.05% EDTA and centrifuged at 12,500×g for 5 min. The supernatant was injected into an HPLC-ECD system (Merck-Hitachi, Germany). The biogenic amines were separated on an ion-pair Ultrasphere RP analytical column (Beckmann, Calif.). The mobile phase contained 8.65 mM heptane sulfonic acid, 0.27 mM EDTA, 13% acetonitrile (HPLC grade), 0.45% triethylamine, and 0.25% phosphoric acid (v/v). The flow rate was 0.7 ml/min and the glassy carbon working electrode was kept at 0.74 V.

Balb/c mice [4] = assay: Striatal DA, DOPAC and HVA by HPLC-electrochemistry in MPTP-treated mice; format: in vivo
Experimental: FIG. 2. Irsogladine reverses MPTP-induced reductions in striatal DA metabolism. Striatal DA (A) and its metabolites, DOPAC (B) and HVA (C) were assayed employing a sensitive HPLC-electrochemical procedure on the 5th day following the administration of MPTP (30 mg/kg; administered twice, 16 h apart, i.p.). Irsogladine (25, 50 and 100 mg/kg, p.o.) was administered for two days at 12 h intervals following the second MPTP injection. Results given are mean±S.E.M., n=6-8 for control groups and 10-12 for MPTP-treated groups (*p<0.05 vs. control; Student's t-test).
as §4, §2, §3, §5

Balb/c mice [5] = assay: Swim-ability (swim score) after MPTP; format: in vivo; conditions: 4th day
Experimental: FIG. 4. Irsogladine attenuates MPTP-induced swim disability in mice. Effect of different doses of Irsogladine on the swimming ability of Balb/c mice was tested in warm water (27±2° C.) on the fourth day following the treatment of MPTP (30 mg/kg, i.p., twice, 16 h apart). Swim-scores were recorded on a performance intensity scale of 0-3 for all the animals for 10 min. Results given are mean±S.E.M., n=6-8 for control groups and 10-12 for MPTP-treated groups (p≦0.05; vs. control; Wilcoxon Signed Rank test for group comparison).
as §2
MPTP was dissolved in normal saline and administered intraperitonially (i.p.), twice, 16 h apart, at the dose of 30 mg/kg to mice. The animals received the first injections at 1700 h and the second at 0900 h the next day. […]

[6] = test system: MPP^+-induced hydroxyl radical (.OH) in the mitochondria; assay: MPP+-induced hydroxyl radical (2,3-DHBA) production in sub-mitochondrial particles; format: biochemical; conditions: for MPP+-induced 2,3-DHBA (OH adduct of salicylate) production in the mitochondria: irsogladine 0.01-1 mM, MPP+ 100 μM, sub-mitochondrial particles, 30 min; for increase in the production of 2,3-DHBA (OH production): sub-mitochondrial particles incubated with MPP+ (100 μM)
Experimental: FIG. 1. Irsogladine scavenges MPP^+-induced OH from the mitochondria. Sub-mitochondrial particles were incubated with the neurotoxic metabolite of MPTP, 1-methyl-4-phenyl pyridinium ion (MPP^+) and salicylic acid in the presence and absence of irsogladine. The resulting OH adducts of salicylate, 2,3-dihydroxy benzoic acid (2,3-DHBA) was assayed using a HPLC equipped with electrochemical detector.
Irsogladine scavenges MPP^+-induced hydroxyl radical (.OH) in the mitochondria. The oxidative metabolite of MPTP, 1-methyl-4-phenylpyridinium ion (MPP^+) is selectively taken into the dopaminergic neurons through dopamine transporters, and sequestered in the mitochondria.
Preparation of sub-mitochondrial particles and estimation of hydroxyl radical. Mitochondrial P2 fraction was obtained by making a 10% homogenate of the cerebral cortex, with a glass-Teflon homogenizer in 0.32 M sucrose in cold 10 mM potassium phosphate buffer, pH 7.2. The homogenate was centrifuged at 1,000×g for 10 min at 4° C. using a Sorvall centrifuge. The supernatant was centrifuged at 10,000×g for 30 min. The pellet was resuspended in the same volume of ice-cold 50 mM Tris in 10 mM potassium phosphate buffer (pH 7.2) and centrifuged at 10,000×g for 30 min. This step was repeated once. The pellet thus obtained was suspended in the same volume of ice-cold 10 mM potassium phosphate buffer, pH 7.2 and kept overnight at −20° C. The mitochondrial suspension was thawed, and the protein content was estimated.
The .OH adduct of salicylate, 2,3-dihydroxybenzoic acid (DHBA), was assayed employing HPLC-electrochemistry as described earlier. The ex-vivo OH production was tested in sub-mitochondrial particles. Mitochondrial fraction was incubated with MPP^+ (100 μM) and phosphate buffer (0.1 M) for 5 min. Sodium salicylate (0.75 mM) and different concentrations of irsogladine (0.01-1 mM) were added 5 min after the addition of MPP^+ and incubated for 30 min. The reaction was stopped by adding equal amount of ice-cold perchloric acid (0.1 M) containing 0.01% EDTA, kept on ice for 30 min and then centrifuged at 10,000×g for 5 min. The supernatant was injected into the HPLC system for the assay of 2,3-DHBA. Standard solution containing 2,3-DHBA was injected prior to and after the analyses of the samples, and the products formed are expressed as pmol/mg protein/min.

[7] = highest dose of irsogladine in MPTP-treated mice
[8] = irsogladine 25, 50, 100 mg/kg p.o. in MPTP-treated mice, 2 h after second MPTP injection
[9] = irsogladine 25 mg/kg p.o. + MPTP
[10] = irsogladine 25 mg/kg p.o., no MPTP
[11] = irsogladine 50 mg/kg p.o. + MPTP
[12] = irsogladine 50 mg/kg p.o., no MPTP
[13] = irsogladine 100 mg/kg p.o. + MPTP
[14] = irsogladine 100 mg/kg p.o., no MPTP
[15] = irsogladine post-treatment in MPTP-treated mice
[16] = MPTP 30 mg/kg i.p. twice, 2 h after second injection, compared to saline treated mice
[17] = MPTP alone (30 mg/kg i.p. twice, 16 h apart)

With `Nc1nc(N)nc(-c2cc(Cl)ccc2Cl)n1` [Irsogladine, 2,4-diamino-6-(2,5-dichlorophenyl)-s-triazine] the “attenuation of MPTP-induced akinesia, highest dose” value (Balb/c mice [1]; [7]) was “complete”, the “attenuation of MPTP-induced akinesia” value (Balb/c mice [1]; [8]) was “dose-dependently reduced; also recorded: dose-dependently attenuated” and the “akinesia, drug alone” value (Balb/c mice [1]; irsogladine alone, no MPTP) was “absent”. The “attenuation of MPTP-induced catalepsy, highest dose” value (Balb/c mice [2]; [7]) was “complete”, the “attenuation of MPTP-induced catalepsy” value (Balb/c mice [2]; [8]) was “dose-dependently reduced; also recorded: dose-dependently attenuated” and the “catalepsy (rigidity), drug alone” value (Balb/c mice [2]) was “does not cause catalepsy”. For the same molecule, the “catalepsy (rigidity), drug alone” value (Balb/c mice [2]; listed as irsladine) was “absent”, the “level of 5-HIAA, in words” value (Balb/c mice [3]) was “not altered” and the “level of serotonin (5-HT), in words” value (Balb/c mice [3]) was “not altered”. The “5-HIAA (pmol/mg tissue; Mean ± SEM)” value (Balb/c mice [3]; [9]) was 2.11 ± 0.17 pmol/mg tissue, the “5-HT (pmol/mg tissue; Mean ± SEM)” value (Balb/c mice [3]; [9]) was 2.64 ± 0.24 pmol/mg tissue and the “5-HIAA (pmol/mg tissue; Mean ± SEM)” value (Balb/c mice [3]; [10]) was 2.32 ± 0.31 pmol/mg tissue. The “5-HT (pmol/mg tissue; Mean ± SEM)” value (Balb/c mice [3]; [10]) was 2.52 ± 0.34 pmol/mg tissue, the “5-HIAA (pmol/mg tissue; Mean ± SEM)” value (Balb/c mice [3]; [11]) was 2.88 ± 0.17 pmol/mg tissue and the “5-HT (pmol/mg tissue; Mean ± SEM)” value (Balb/c mice [3]; [11]) was 2.97 ± 0.27 pmol/mg tissue. The “5-HIAA (pmol/mg tissue; Mean ± SEM)” value (Balb/c mice [3]; [12]) was 2.99 ± 0.29 pmol/mg tissue, the “5-HT (pmol/mg tissue; Mean ± SEM)” value (Balb/c mice [3]; [12]) was 2.96 ± 0.61 pmol/mg tissue and the “5-HIAA (pmol/mg tissue; Mean ± SEM)” value (Balb/c mice [3]; [13]) was 2.01 ± 0.09 pmol/mg tissue. For the same molecule, the “5-HT (pmol/mg tissue; Mean ± SEM)” value (Balb/c mice [3]; [13]) was 2.68 ± 0.24 pmol/mg tissue, the “5-HIAA (pmol/mg tissue; Mean ± SEM)” value (Balb/c mice [3]; [14]) was 2.32 ± 0.16 pmol/mg tissue and the “5-HT (pmol/mg tissue; Mean ± SEM)” value (Balb/c mice [3]; [14]) was 2.52 ± 0.28 pmol/mg tissue. The “protection of striatal DA” value (Balb/c mice [4]; irsogladine 25, 50 and 100 mg/kg p.o., b.i.d. for 2 days, post-treatment in MPTP-treated mice, 5th day) was “significant dose-dependant protection”, the “alteration of striatal DA” value (Balb/c mice [4]; irsogladine alone in control animals) was “did not cause significant alteration” and the “reversal of MPTP-induced reduction of striatal DOPAC” value (Balb/c mice [4]; [15]) was “dose-dependant reversal”. For the same molecule, the “reversal of MPTP-induced reduction of striatal HVA” value (Balb/c mice [4]; [15]) was “dose-dependant reversal”, the “alteration of striatal DOPAC level” value (Balb/c mice [4]; irsogladine treatment alone) was “did not cause any significant alterations” and the “alteration of striatal HVA level” value (Balb/c mice [4]; irsogladine treatment alone) was “did not cause any significant alterations”. For the same molecule, the “improvement of swim score” value (Balb/c mice [5]; irsogladine post-treatment in MPTP-treated mice, dose-dependently) was “significantly improved”, the “MPP+-induced 2,3-DHBA (OH adduct of salicylate) production in the mitochondria” value [6] was “significantly attenuated” and the “MPP+-induced 2,3-DHBA (OH adduct of salicylate) production in the mitochondria” value ([6]; listed as irsogladine) was “dose-dependently scavenged”.

`CN1CC=C(c2ccccc2)CC1` [MPTP, 1-methyl-4-phenyl-1,2,3,6-tetrahydropyridine] was tested, and the “akinetic behavior induced by MPTP” value (Balb/c mice [1]; [16]) was “significant akinetic”, the “cataleptic behavior induced by MPTP” value (Balb/c mice [2]; [16]) was “cataleptic” and the “level of 5-HIAA, in words” value (Balb/c mice [3]) was “not altered”. The “level of serotonin (5-HT), in words” value (Balb/c mice [3]) was “not altered”, the “5-HIAA (pmol/mg tissue; Mean ± SEM)” value (Balb/c mice [3]; [17]) was 2.50 ± 0.24 pmol/mg tissue and the “5-HT (pmol/mg tissue; Mean ± SEM)” value (Balb/c mice [3]; [17]) was 2.77 ± 0.31 pmol/mg tissue. For the same molecule, the “depletion of striatal DA” value (Balb/c mice [4]; MPTP 30 mg/kg i.p., 2 times 16 h apart, 5th day, compared to saline-injected mice) was 55% and the “swim score after MPTP” value (Balb/c mice [5]; MPTP 30 mg/kg i.p. twice, vs sham-treated animals, from the 2nd minute onwards) was “significant reduction”.

In the case of `C[n+]1ccc(-c2ccccc2)cc1` [MPP^+, 1-methyl-4-phenylpyridinium ion], the “increase in the production of 2,3-DHBA (OH production)” value [6] is reported as 5 fold and the “increase in the production of 2,3-DHBA (OH production)” value ([6]; listed as MPP+) is reported as “about 5 fold”.
